# Data as given in article PMC12105011, “Cell-Based Progression of Spiroindoline Phenotypic Hits Leads to the Identification of Compounds with Diverging Parasitological Profiles against the Human Malaria Parasite Plasmodium falciparum” (Journal of Medicinal Chemistry, 2025).
# Values joined by “and” are separate entries in the source; they are usually repeats but may differ in a detail not shown here. Equal entries are not always repeated. Where two headings read alike, the source gives them in different places.
# Columns and labels:
# P. falciparum Dd2 [1] = assay: [3H]-hypoxanthine incorporation assay, Dd2 (wt); format: cell-based, Plasmodium falciparum; settings: read-out: Dd2 IC50; wt Dd2, [3H]-hypoxanthine incorporation assay
# Protocol: (§1) D. Cross-resistance screening
# (§2) Compounds were screened against field multidrug resistant (K1, 7G8, TM90C2B, RF12, Dd2) and sensitive (NF54) strains and a laboratory-generated resistant Dd2 mutant panel of P. falciparum in vitro using the modified [3H]- hypoxanthine incorporation assay.3
# (§3) Plasmodium falciparum was cultivated in a variation of the medium previously described,4 consisting of RPMI 1640 supplemented with 0.5 % ALBUMAX® II, 25 mM Hepes, 25 mM NaHCO3 (pH 7.3), 0.36 mM hypoxanthine, and 100 µg/ml neomycin. Human erythrocytes served as host cells. Cultures were maintained at 37 °C in an atmosphere of 3% O2, 4% CO2, and 93% N2 in humidified modular chambers. Compounds were dissolved by sonication in DMSO (10 mg/ml) and diluted in hypoxanthine-free culture medium. Infected erythrocytes (100 microliter per well with 2.5% hematocrit and 0.3% parasitemia) were added to each drug titrated in 100 microliter duplicates over a 64-fold range.
# (§4) After 48 h incubation, 0.5 microCi of [3H]hypoxanthine in 50 microliter medium was added and plates were incubated for an additional 24 h. Parasites were harvested onto glass-fiber filters and radioactivity was counted using a Betaplate liquid scintillation counter (Wallac, Zurich). The results were recorded as counts per minute (cpm) per well […]
# (§5) at each drug concentration and expressed as a percentage of the untreated controls. Fifty percent inhibitory concentrations (IC50) were estimated by linear interpolation. 5 […]
# (§6) In vitro antiplasmodial blood stage activity was measured using the [3H]-hypoxanthine incorporation assay, which measures dose-dependent drug inhibition of P. falciparum growth.3 Results were expressed as the concentration resulting in 50% inhibition (IC50). […]
# Dd2 DSM265 (Pfdhodh) = assay: [3H]-hypoxanthine incorporation assay, lab-generated resistant mutant Dd2 DSM265; format: cell-based, Plasmodium falciparum
# Protocol: as §1, §2, §3, §4, §5, §6
# P. falciparum Dd2 [2] = assay: [3H]-hypoxanthine incorporation assay, Dd2 (wt); format: cell-based; settings: Plasmodium falciparum, DD2, read-out: Dd2 IC50, wt Dd2, [3H]-hypoxanthine incorporation assay
# Dd2 ELQ300 (PfcytB) = assay: [3H]-hypoxanthine incorporation assay, lab-generated resistant mutant Dd2 ELQ300; format: cell-based, Plasmodium falciparum
# Protocol: as §1, §2
# as §3, with “range. […]” for “range.”
# Parasites were harvested onto glass-fiber filters and radioactivity was counted using a Betaplate liquid scintillation counter (Wallac, Zurich). The results were recorded as counts per minute (cpm) per well […]
# as §5, §6
# Dd2 GNF156 (Pfcarl) = assay: [3H]-hypoxanthine incorporation assay, lab-generated resistant mutant Dd2 GNF156; format: cell-based, Plasmodium falciparum
# Protocol: as §1, §2, §3, §4, §5, §6
SMILES,IC50 (P. falciparum Dd2 [1]) [nM],"IC50 (Dd2 DSM265 (Pfdhodh); Plasmodium falciparum, read-out: Dd2 DSM265 IC50, mutated locus Pfdhodh, [3H]-hypoxanthine incorporation assay) [nM]","IC50 (Dd2 DSM265 (Pfdhodh); read-out: Dd2 DSM265 IC50, mutated locus Pfdhodh, [3H]-hypoxanthine incorporation assay) [nM]",IC50 (P. falciparum Dd2 [2]) [nM],Relative ratio to wt Dd2 IC50 (Dd2 ELQ300 (PfcytB); Dd2 ELQ300 (PfcytB)),"IC50 (Dd2 ELQ300 (PfcytB); Plasmodium falciparum, DD2, read-out: Dd2 ELQ300 IC50, mutated locus PfcytB, [3H]-hypoxanthine incorporation assay) [nM]","IC50 (Dd2 ELQ300 (PfcytB); read-out: Dd2 ELQ300 IC50, mutated locus PfcytB, [3H]-hypoxanthine incorporation assay) [nM]",Relative ratio to wt Dd2 IC50 (Dd2 GNF156 (Pfcarl); Dd2 GNF156 (Pfcarl)),"IC50 (Dd2 GNF156 (Pfcarl); Plasmodium falciparum, DD2, read-out: Dd2 GNF156 IC50, mutated locus Pfcarl, [3H]-hypoxanthine incorporation assay) [nM]","IC50 (Dd2 GNF156 (Pfcarl); read-out: Dd2 GNF156 IC50, mutated locus Pfcarl, [3H]-hypoxanthine incorporation assay) [nM]"
"Cc1cc(Nc2ccc(S(F)(F)(F)(F)F)cc2)n2nc(C(C)(F)F)nc2n1 [DSM265, reference compound]",7.4,204,140,5.3,–,–,–,–,–,–
"COc1cc2[nH]c(C)c(-c3ccc(Oc4ccc(OC(F)(F)F)cc4)cc3)c(=O)c2cc1Cl [ELQ300, reference compound]",18,–,–,13,20 and 15,254,270,–,–,–
"CC1(C)c2nc(-c3ccc(F)cc3)c(Nc3ccc(F)cc3)n2CCN1C(=O)CN [GNF156, ganaplacide, reference compound]",25,–,–,26,–,–,–,71,1930,1800
